According to paper PMC3443605 (Journal of medicinal chemistry, 2012):
Entries after “also recorded” stand apart in the source; their conditions may differ.

Tests used:
[1] = biological target: T1, D2L receptors (Homo sapiens, UniProt P14416); assay: D2R radioligand binding assay
Target sequence in this assay (P14416 whole entry): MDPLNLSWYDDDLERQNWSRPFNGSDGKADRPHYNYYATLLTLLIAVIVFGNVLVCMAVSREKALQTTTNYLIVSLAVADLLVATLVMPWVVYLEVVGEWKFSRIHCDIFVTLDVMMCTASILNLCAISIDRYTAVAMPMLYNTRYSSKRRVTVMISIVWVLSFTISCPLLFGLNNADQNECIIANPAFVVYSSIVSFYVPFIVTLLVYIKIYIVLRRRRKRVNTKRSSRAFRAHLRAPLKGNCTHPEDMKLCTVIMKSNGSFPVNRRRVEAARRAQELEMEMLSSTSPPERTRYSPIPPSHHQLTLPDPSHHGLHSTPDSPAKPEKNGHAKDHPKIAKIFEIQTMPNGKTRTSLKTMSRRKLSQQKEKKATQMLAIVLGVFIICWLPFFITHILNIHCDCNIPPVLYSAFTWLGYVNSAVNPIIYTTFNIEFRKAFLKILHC

[2] = biological target: T1, D2L receptors; assay: cell-based; format: cell-based
Target sequence in this assay (P14416 whole entry, added parts left off): as the sequence (P14416 whole entry) above
Target sequence in this assay (P32121 whole entry partner): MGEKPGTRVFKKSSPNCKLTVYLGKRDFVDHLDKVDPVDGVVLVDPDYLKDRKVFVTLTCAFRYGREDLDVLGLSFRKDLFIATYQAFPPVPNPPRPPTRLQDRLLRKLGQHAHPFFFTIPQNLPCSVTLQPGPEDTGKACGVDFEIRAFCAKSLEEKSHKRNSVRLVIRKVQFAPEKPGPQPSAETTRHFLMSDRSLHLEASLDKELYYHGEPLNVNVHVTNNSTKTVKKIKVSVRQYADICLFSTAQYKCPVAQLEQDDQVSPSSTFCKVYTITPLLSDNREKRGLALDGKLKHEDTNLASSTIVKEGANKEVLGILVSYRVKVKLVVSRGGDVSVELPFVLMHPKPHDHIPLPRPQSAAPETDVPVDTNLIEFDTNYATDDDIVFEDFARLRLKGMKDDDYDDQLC

[3] = cited from earlier work
[4] = biological target: D1 receptor (Homo sapiens, UniProt P21728); assay: PDSP radioligand binding assay, D1; details: Table S1
Chain of D1 receptor (P21728 whole entry): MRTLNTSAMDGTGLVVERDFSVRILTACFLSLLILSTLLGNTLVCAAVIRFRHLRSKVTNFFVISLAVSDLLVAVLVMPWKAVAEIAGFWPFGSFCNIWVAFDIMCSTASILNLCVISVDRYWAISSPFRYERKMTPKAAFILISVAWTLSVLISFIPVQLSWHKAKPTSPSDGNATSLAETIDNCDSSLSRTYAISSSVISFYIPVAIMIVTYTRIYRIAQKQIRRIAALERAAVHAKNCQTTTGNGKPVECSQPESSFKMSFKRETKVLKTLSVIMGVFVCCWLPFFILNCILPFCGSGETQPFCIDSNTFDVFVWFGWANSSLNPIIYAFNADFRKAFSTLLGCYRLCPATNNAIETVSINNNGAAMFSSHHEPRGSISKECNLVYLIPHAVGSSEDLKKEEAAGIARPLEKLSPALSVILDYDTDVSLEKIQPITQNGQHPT

[5] = system: β-arrestin-2 knockout mice; assay: PCP-induced hyperlocomotion in β-arrestin-2 knockout mice; format: in vivo, mouse; details: 2 mg/kg i.p., 30 min before 6 mg/kg PCP i.p.
[6] = biological target: D5 receptor (Homo sapiens, UniProt P21918); assay: PDSP radioligand binding assay, D5; details: Table S1
Chain of D5 receptor (P21918 whole entry): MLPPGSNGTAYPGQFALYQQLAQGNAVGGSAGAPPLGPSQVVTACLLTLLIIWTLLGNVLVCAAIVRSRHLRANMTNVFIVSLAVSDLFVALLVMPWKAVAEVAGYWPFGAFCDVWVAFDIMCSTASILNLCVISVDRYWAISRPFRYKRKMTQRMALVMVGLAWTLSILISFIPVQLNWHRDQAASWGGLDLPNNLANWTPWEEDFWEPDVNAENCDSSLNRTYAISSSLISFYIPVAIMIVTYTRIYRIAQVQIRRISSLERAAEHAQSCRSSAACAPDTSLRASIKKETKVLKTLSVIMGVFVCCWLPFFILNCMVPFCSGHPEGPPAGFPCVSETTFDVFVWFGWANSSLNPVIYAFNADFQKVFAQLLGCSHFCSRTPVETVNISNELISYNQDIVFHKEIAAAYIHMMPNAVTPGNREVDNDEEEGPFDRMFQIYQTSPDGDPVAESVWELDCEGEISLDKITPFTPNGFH

[7] = system: wild-type mice; assay: PCP-induced hyperlocomotion in wild-type mice; format: in vivo, mouse; details: 2 mg/kg i.p., 30 min before 6 mg/kg PCP i.p.
[8] = biological target: D3 receptor (Homo sapiens, UniProt P35462); assay: PDSP radioligand binding assay, D3; details: Table S1
Chain of D3 receptor (P35462 whole entry): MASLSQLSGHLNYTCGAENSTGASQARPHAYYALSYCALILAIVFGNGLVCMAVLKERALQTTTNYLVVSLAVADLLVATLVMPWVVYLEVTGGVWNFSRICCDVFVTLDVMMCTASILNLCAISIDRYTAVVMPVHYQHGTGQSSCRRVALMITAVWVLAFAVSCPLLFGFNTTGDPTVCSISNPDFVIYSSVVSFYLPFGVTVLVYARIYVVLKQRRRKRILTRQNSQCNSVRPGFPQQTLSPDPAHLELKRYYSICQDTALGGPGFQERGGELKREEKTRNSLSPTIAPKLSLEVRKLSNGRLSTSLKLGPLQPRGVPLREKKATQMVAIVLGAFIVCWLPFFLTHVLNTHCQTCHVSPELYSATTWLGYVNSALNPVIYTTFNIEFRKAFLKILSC

[9] = biological target: T2, D4 receptor (Homo sapiens, UniProt P21917); assay: PDSP radioligand binding assay, D4; details: Table S1
T2 sequence (P21917 1-419): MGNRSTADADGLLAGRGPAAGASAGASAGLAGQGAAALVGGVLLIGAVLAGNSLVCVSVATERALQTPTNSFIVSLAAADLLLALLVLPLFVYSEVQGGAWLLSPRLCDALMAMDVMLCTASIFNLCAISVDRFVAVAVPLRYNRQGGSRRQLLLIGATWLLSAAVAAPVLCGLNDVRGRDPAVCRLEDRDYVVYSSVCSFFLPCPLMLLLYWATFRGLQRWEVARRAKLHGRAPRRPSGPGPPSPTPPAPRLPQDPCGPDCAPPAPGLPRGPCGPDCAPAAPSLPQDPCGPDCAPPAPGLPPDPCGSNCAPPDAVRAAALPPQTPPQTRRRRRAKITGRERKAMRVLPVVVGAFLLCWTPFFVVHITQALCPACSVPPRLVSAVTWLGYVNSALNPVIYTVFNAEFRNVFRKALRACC

[10] = system: β-arrestin-2 knockout mice; details: cited from earlier work
[11] = system: wild-type mice; details: cited from earlier work
[12] = system: wild-type mice; details: cited from earlier work; remark: listed apart in the source

O=C1CCc2ccc(OC[C@@H]3C[C@H]3CN3CCN(c4cccc(Cl)c4Cl)CC3)cc2N1 (relative stereo) [Compound 24, Trans-7-((2-((4-(2,3-dichlorophenyl)piperazin-1-yl)methyl)cyclopropyl)methoxy)-3,4-dihydroquinolin-2(1H)-one]
Ki [1]: 235 nM
EC50 [2]: 1260 nM

O=C1CCc2ccc(OCCCCN3CCN(c4cccc(Cl)c4Cl)CC3)cc2N1 [Compound 1, aripiprazole]
oral bioavailability [3]: high

CC(C)Oc1ccccc1N1CCN(CCCCOc2ccc3c(c2)NC(=O)CC3)CC1 [Compound 4, 7-(4-(4-(2-Isopropoxyphenyl)piperazin-1-yl)butoxy)-3,4-dihydroquinolin-2(1H)-one]
potency at activating β-arrestin versus Gi signaling [2]: about 10 fold

O=C1CCc2ccc(OCCCCN3CCCN(c4cccc(Cl)c4Cl)CC3)cc2N1 [Compound 19]
binding affinity to D1 receptor [4]: low affinities
antipsychotic-like activity (PCP-induced hyperlocomotion), β-arrestin-2 knockout mice [5]: neither compound affected; also recorded: completely abolished
binding affinity to D5 receptor [6]: low affinities
effect on PCP-induced hyperlocomotion, wild-type mice [7]: markedly inhibited

Clc1cccc(C2CCN(CCCCOc3ccc4scnc4c3)CC2)c1Cl [Compound 35, 5-(4-(4-(2,3-Dichlorophenyl)piperidin-1-yl)butoxy)benzo[d]thiazole]
binding affinity to D1 receptor [4]: low affinities
binding affinity to D2 receptor ([1]; Table S1): high affinities
binding affinity to D3 receptor [8]: high affinities
binding affinity to D4 receptor [9]: high affinities
antipsychotic-like activity (PCP-induced hyperlocomotion), β-arrestin-2 knockout mice [5]: neither compound affected
binding affinity to D5 receptor [6]: low affinities
effect on PCP-induced hyperlocomotion, wild-type mice [7]: significantly reduced

Clc1cccc(C2CCN(CCCOc3ccc4scnc4c3)CC2)c1Cl [Compound 36]
antipsychotic drug-like activities in β-arrestin-2 knockout mice [10]: significantly attenuated or completely abolished
antipsychotic drug-like activities in wild-type mice [11]: robust
catalepsy in wild-type mice [12]: did not induce catalepsy

O=C1CCc2ccc(OCCCCN3CCCN(c4cccc(Cl)c4Cl)CC3)nc2N1 [Compound 44]
antipsychotic drug-like activities in β-arrestin-2 knockout mice [10]: significantly attenuated or completely abolished
antipsychotic drug-like activities in wild-type mice [11]: robust
catalepsy in wild-type mice [12]: did not induce catalepsy
